These are literature values, as cited in patent publication US8652504B2, “Solid polymer delivery compositions and methods for use thereof” (Medivas, LLC, priority 2005, dated 2014).

Structures are written as SMILES.

For data set [1] the following is noted: in vivo.
For data set [2], the system named is nerve impulses. The conditions noted are these: local anesthetic.

Turning to `CCCCN1CCCCC1C(=O)Nc1c(C)cccc1C` (centres unmarked) [bupivacaine], the “morphine requirements and subjective pain scores” value (intra-articular bupivacaine (up to 0.5%) at 4 mL/hr, first 24 hours after surgery) is reported as “neither reduced morphine requirements nor decreased subjective pain scores”. The serum bupivacaine level (one patient receiving 0.5% intra-articular bupivacaine at 4 mL/hr) is 1.2 µg/mL. The “serum bupivacaine level at which toxicity has been reported / generally considered toxic” value in data set [1] was 1.0 µg/mL. In data set [2], the duration of action was 6 to 8 h.
Consider `CCN(CC)CC(=O)Nc1c(C)cccc1C` [lidocaine], for which the duration of action in data set [2] is 1 to 2 h.
